# Source: paper PMC10182601, “Biological evaluation of novel gemcitabine analog in patient-derived xenograft models of pancreatic cancer” (BMC Cancer, 2023)
# Where a name gives a salt, the structure may show the parent alone.
# Legend:
# [1] = test system: PPCL-46 cells; experiment: Cell migration (wound) assay, PPCL-46; assay type: cell-based, human; conditions: PPCL-46, 5 µM, 48 h
# Method: (§1) A cell migration assay was conducted to determine the effect of 4NSG-SLN on PPCL-192 and PPCL-46 cell motility. The Ibidi cell culture inserts were used to grow the cells into two confluent monolayers separated by a "wound" for this assay. The cells were seeded into 24-well plates at a cell density of 2.5 × 10^5, 48 h at 37 °C. At 75% confluency, cells formed adherent monolayers on either side of the tissue culture insert. Before treatment, the cells were serum-starved by replacing complete media with base media (DMEM) and then further incubated for 48 h. After serum starvation, the inserts were gently removed to generate a gap or "wound" between the two confluent layers of cells, and the monolayers were washed with experimental media. Afterward, cells were exposed to 5 μM concentration of GemHCl and 4NSG-SLN treatments. Images of the cells invading the wound were then captured after 48 h with a Nikon Ti Eclipse microscope.
# [2] = test system: VEGFR; experiment: Immunohistochemistry of PDX tumor tissue, VEGFR; assay type: in vivo, mice; conditions: for VEGF % Moderate Positive Cells / VEGF % Positive / VEGF % Weak Positive Cells / VEGF H Score / VEGF % Strong Positive Cells: IHC
# Method: [The source words this procedure for another target and reports this target under the same test.] (§2) Tissue samples from mice bearing tumors from Black and White PCa patients post treatments with GemHCl and 4NSG-SLN were excised and immediately washed with PBS, fixed (10% buffered formalin) for 24 h, and transferred to 70% ethanol for histopathological analysis. Histology was performed by HistoWiz Inc. (Histowiz.com) according to manufacturer protocol. Samples were embedded in paraffin, and 4 μm sections were prepared. Immunohistochemistry was performed on a Bond Rx autostainer (Leica Biosystems) with enzyme treatment (1:1000) using standard protocols (https://home.histowiz.com/faq/). Samples were incubated overnight with primary antibodies (Antibodies used were rat monoclonal F4/80 primary antibody (eBioscience, 14–4801, and 1:200), and immunohistochemical staining was done using rabbit anti-rat secondary (Vector Labs, 1:100). Bond Polymer Refine Detection was used per the manufacturer's protocol (Leica Biosystems). After staining, sections were dehydrated and filmed, coverslipped using a Tissue-Tek Prisma coverslip (Sakura). Whole slide scanning (40x) was performed on an Aperio AT2 (Leica Biosystems).
# [3] = test system: PPCL-192 cells; experiment: Cell migration (wound) assay, PPCL-192; assay type: cell-based, human; conditions: PPCL-192, 5 µM, 48 h
# Method: as §1
# [4] = test system: HER2; experiment: Immunohistochemistry of PDX tumor tissue, HER2; assay type: in vivo, mice
# [5] = test system: EGFR; experiment: Immunohistochemistry of PDX tumor tissue, EGFR; assay type: in vivo, mice; conditions: for EGFR % Moderate Positive Cells / EGFR % Positive / EGFR % Strong Positive Cells / EGFR % Weak Positive Cells / EGFR %Negative Cells / EGFR H Score: IHC
# Method: [The source words this procedure for another target and reports this target under the same test.] as §2
# [6] = BT PDX tumor tissue after treatment
# [7] = BT and WT PDX tumor tissues, 40X
# [8] = WT PDX tumor tissue after treatment
# [9] = BT PDX tumor tissue after treatment, IHC
# [10] = WT PDX tumor tissue after treatment, IHC
smiles,measurement,setting,value
"Nc1ccn([C@@H]2O[C@H](CO)[C@@H](O)C2(F)F)c(=O)n1 [GemHCl, Gemcitabine hydrochloride]",Number of cells migrated,[1],120 ± 3.8
same,VEGF % Moderate Positive Cells,[2]; [6],0.6 ± 0.2%
same,VEGF % Positive,[2]; [6],27 ± 0.4%
same,VEGF % Weak Positive Cells,[2]; [6],1.2 ± 0.3%
same,VEGF H Score,[2]; [6],4.7
same,VEGF % Strong Positive Cells,"[2]; BT PDX tumor tissue after treatment, first line of this name (r21)",0.5 ± 0.1%
same,VEGF % Strong Positive Cells,"[2]; BT PDX tumor tissue after treatment, second line of this name (r22)",70.7 ± 7.8%
same,VEGFR expression in representative IHC images,[2]; [7],moderate to high
same,VEGF % Moderate Positive Cells,[2]; [8],0.6 ± 0.1%
same,VEGF % Positive,[2]; [8],30 ± 1.4%
same,VEGF % Weak Positive Cells,[2]; [8],0.7 ± 0.3%
same,VEGF H Score,[2]; [8],10.0
same,VEGF % Strong Positive Cells,"[2]; WT PDX tumor tissue after treatment, first line of this name (r21)",0.7 ± 0.3%
same,VEGF % Strong Positive Cells,"[2]; WT PDX tumor tissue after treatment, second line of this name (r22)",68 ± 3.8%
same,Number of cells migrated,[3],84 ± 3.1
same,HER2 % Moderate Positive Cells,[4]; [9],7.2 ± 4.3%
same,HER2 % Positive,[4]; [9],17.2 ± 1.0%
same,HER2 % Strong Positive Cells,[4]; [9],3.7 ± 0.8%
same,HER2 % Weak Positive Cells,[4]; [9],9.3 ± 1.4%
same,HER2 %Negative Cells,[4]; [9],62.6 ± 3.4%
same,HER2 H Score,[4]; [9],31.8
same,HER2 expression in representative IHC images,[4]; [7],moderate to high
same,HER2 % Positive,[4]; [10],19.9 ± 1.5%
same,HER2 % Strong Positive Cells,[4]; [10],3.6 ± 1.2%
same,HER2 % Weak Positive Cells,[4]; [10],8.9 ± 0.8%
same,HER2 %Negative Cells,[4]; [10],57.4 ± 7.3%
same,HER2 H Score,[4]; [10],30.9
same,EGFR % Moderate Positive Cells,[5]; [6],0.6 ± 0.2%
same,EGFR % Positive,[5]; [6],25 ± 4.5%
same,EGFR % Strong Positive Cells,[5]; [6],0.5 ± 0.1%
same,EGFR % Weak Positive Cells,[5]; [6],1.4 ± 0.1%
same,EGFR %Negative Cells,[5]; [6],72.5 ± 1.5%
same,EGFR H Score,[5]; [6],3.0
same,EGFR expression in representative IHC images,[5]; [7],moderate to high
same,EGFR % Moderate Positive Cells,[5]; [8],3.1 ± 2.1%
same,EGFR % Positive,[5]; [8],20 ± 10%
same,EGFR % Strong Positive Cells,[5]; [8],2.3 ± 1.5%
same,EGFR % Weak Positive Cells,[5]; [8],2.7 ± 0.7%
same,EGFR %Negative Cells,[5]; [8],71.9 ± 1.6%
same,EGFR H Score,[5]; [8],22.1
